Entries after “also recorded” stand apart in the source; their conditions may differ.
Assays:
[1] = target: T1, Aβ40 aggregates (Homo sapiens, UniProt P05067); experiment: In vitro fluorescence measurement before and after mixing with agglomerated Aβ40 peptide; assay type: binding; settings: for λem: emission wavelength; for λem / λex: 10 μM in PBS; for λex: excitation wavelength; for Fold Increase (FAβ/F0): fluorescence emission intensity at λem, 10 μM compound and 10 μM Aβ40 aggregates
T1 construct: agglomerated Aβ40 peptide (10 μM, 35° C., agglomerated in PBS buffer for 3 days.)
T1 sequence (P05067 672-711 limits assumed): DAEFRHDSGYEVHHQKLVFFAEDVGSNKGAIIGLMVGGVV

[2] = target: T2, intracellular Aβ aggregates of a SHSY5Y neuroblastoma cell (Homo sapiens, UniProt P05067); experiment: Fluorescence imaging of intracellular Aβ aggregates in SHSY5Y cell extract; assay type: cell-based; settings: for fluorescent staining of extract of Aβ42-added SHSY5Y cells: cell cultured with unlabelled Aβ42, sonicated with SDS, homogenate reacted with 10 μM probe for 10 minutes; for fluorescent staining of extract of SHSY5Y cells grown without Aβ: culture without Aβ42 (negative control tissue)
T2 construct: a cell having unlabelled Aβ42 added thereto was sonicated with SDS; host or cells: exogenous peptide added to the SHSY5Y neuroblastoma cell culture
T2 sequence (P05067 672-713 limits assumed): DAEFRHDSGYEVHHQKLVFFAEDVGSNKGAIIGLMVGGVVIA
Procedure: Fluorescence imaging of compound 14 was performed on intracellular Aβ aggregates of a SHSY5Y neuroblastoma cell. In order to measure intracellular uptake and aggregation of Aβ, 1 μM of Aβ42 (FITC-Aβ42) labelled with fluorescein isothiocyanate was added, and SHSY5Y cell was cultivated 3 days and imaged with fluorescence microscope. […] The conventional research reported that, after extracellular soluble Aβ is taken up, Aβ42 aggregates (>200 kDa) having a high molecular weight is formed. In order to determine whether the compound 14 is used as a fluorescence probe component for detecting intracellular Aβ aggregates, a cell having unlabelled Aβ42 added thereto was sonicated with SDS, and the homogenate was reacted with 10 μM of compound 14 for 10 minutes.

[3] = target: T1, Aβ40 aggregates; experiment: Apparent binding constant (Kd) by fluorescence titration with aggregated Aβ40 peptide; settings: 10 μM aggregated Aβ40 peptide, PBS, N = 3; read-out: Kd (mean ± SD)
Procedure: Apparent binding constants (Kd) of the nine compounds were measured by using 10 μM aggregated Aβ40 peptide. Fluorescence intensity of respective probes of […], 0.5, 1, […], 5, and 10 μM dissolved in PBS and fluorescence intensity of a mixture with aggregates Aβ peptide were measured. […] Theoretically, a preferable fluorescence probe for Aβ aggregates should have high fluorescence reactivity and binding affinity.

[4] = tested on: Aβ aggregates of brain tissues of an AD mouse; experiment: Fluorescence staining of brain sections of transgenic AD mouse (APP/PS1); settings: for staining of Aβ aggregates in brain section of transgenic AD mouse: 15-month aged APP/PS1 mouse brain section; for staining of brain tissue of control group mouse: control group mouse brain section
Procedure: In order to evaluate whether 2-styrylpyridazine-3(2H)-one-based compound 14 can stain beta amyloid aggregates of brain tissues of an AD mouse, compound 14 was tested in a brain section of an 15-month aged transgenic AD mouse (APP/PS 1) model.

| Compound | λem [1] [nm] | λex [1] [nm] | Fold Increase (FAβ/F0) [1] | fluorescent staining of extract of Aβ42-added SHSY5Y cells [2] | fluorescent staining of extract of SHSY5Y cells grown without Aβ [2] | Kd [3] [µM] | staining of Aβ aggregates in brain section of transgenic AD mouse [4] | staining of brain tissue of control group mouse [4] |
| --- | --- | --- | --- | --- | --- | --- | --- | --- |
| O=c1c(Cl)c(Cl)cnn1/C=C/c1ccccc1 [Compound 1, trans-4,5-dichloro-2-styrylpyridazine-3(2H)-one] | 496 | 350 | 4.72 | – | – | – | – | – |
| O=c1c(Cl)c(Cl)cnn1/C=C/c1ccc(F)cc1 [Compound 2, (E)-4,5-dichloro-2-(4-fluorostyryl)pyridazine-3(2H)-one] | 492 | 350 | 5.93 | – | – | – | – | – |
| O=c1c(Cl)c(Cl)cnn1/C=C/c1ccc(Cl)cc1 [Compound 3, (E)-4,5-dichloro-2-(4-chlorostyryl)pyridazine-3(2H)-one] | 495 | 380 | 3.03 | – | – | – | – | – |
| O=c1c(Cl)c(Cl)cnn1/C=C/c1ccc(Br)cc1 [Compound 4, (E)-2-(4-bromostyryl)-4,5-dichloropyridazine-3(2H)-one] | 495 | 370 | 2.12 | – | – | – | – | – |
| O=c1c(Cl)c(Cl)cnn1/C=C/c1ccc(I)cc1 [Compound 5, (E)-4,5-dichloro-2-(4-Iodostyryl)pyridazine-3(2H)-one] | 498 | 380 | 5.26 | – | – | – | – | – |
| N#Cc1ccc(/C=C/n2ncc(Cl)c(Cl)c2=O)cc1 [Compound 6, (E)-2-(4-cyanostyryl)-4,5-dichloropyridazine-3(2H)-one] | 486 | 380 | 2.94 | – | – | – | – | – |
| COC(=O)c1ccc(/C=C/n2ncc(Cl)c(Cl)c2=O)cc1 [Compound 7, (E)-4,5-dichloro-2-(4-methoxycarbonylstyryl)pyridazine-3(2H)-one] | 488 | 370 | 2.07 | – | – | – | – | – |
| O=c1c(Cl)c(Cl)cnn1/C=C/c1ccccc1[N+](=O)[O-] [Compound 8, (E)-4,5-dichloro-2-(2-nitrostyryl)pyridazine-3(2H)-one] | 500 | 370 | 4.12 | – | – | – | – | – |
| O=c1c(Cl)c(Cl)cnn1/C=C/c1cccc([N+](=O)[O-])c1 [Compound 9, (E)-4,5-dichloro-2-(3-nitrostyryl)pyridazine-3(2H)-one] | 485 | 390 | 2.12 | – | – | – | – | – |
| O=c1c(Cl)c(Cl)cnn1/C=C/c1ccc([N+](=O)[O-])cc1 [Compound 10, (E)-4,5-dichloro-2-(4-nitrostyryl)pyridazine-3(2H)-one] | 515 | 390 | 2.24 | – | – | – | – | – |
| Cc1ccc(/C=C/n2ncc(Cl)c(Cl)c2=O)cc1 [Compound 11, (E)-4,5-dichloro-2-(4-methylstyryl)pyridazine-3(2H)-one] | 516 | 350 | 2.81 | – | – | – | – | – |
| O=c1c(Cl)c(Cl)cnn1/C=C/c1ccc(-c2ccccc2)cc1 [Compound 12, (E)-2-(2-(biphenyl-4-yl)vinyl)-4,5-dichloropyridazine-3(2H)-one] | 514 | 380 | 1.92 | – | – | – | – | – |
| O=c1c(Cl)c(Cl)cnn1/C=C/c1ccc(/C=C/c2ccccc2)cc1 [Compound 13, 4,5-dichloro-2-((E)-4-(E)-styrylstyryl)pyridazine-3(2H)-one] | 510 | 380 | 2.04 | – | – | – | – | – |
| CN(C)c1ccc(/C=C/n2ncc(Cl)c(Cl)c2=O)cc1 [Compound 14] | 636 | 430 | 40.84 | Fluorescence precipitate was obtained; also recorded: clearly stained | did not have fluorescent staining | 1.84 | clearly stained | not stained |
| Nc1ccc(/C=C/n2ncc(Cl)c(Cl)c2=O)cc1 [Compound 15, (E)-4,5-dichloro-2-(4-aminostyryl)pyridazine-3(2H)-one] | 598 | 400 | 12.15 | – | – | 2.95 ± 1.15 | – | – |
| COc1ccccc1/C=C/n1ncc(Cl)c(Cl)c1=O [Compound 16, (E)-4,5-dichloro-2-(2-methoxystyryl)pyridazine-3(2H)-one] | 492 | 380 | 8.24 | – | – | – | – | – |
| COc1cccc(/C=C/n2ncc(Cl)c(Cl)c2=O)c1 [Compound 17, (E)-4,5-dichloro-2-(3-methoxystyryl)pyridazine-3(2H)-one] | 492 | 350 | 11.13 | – | – | 3.48 ± 1.14 | – | – |
| COc1ccc(/C=C/n2ncc(Cl)c(Cl)c2=O)cc1 [Compound 18, (E)-4,5-dichloro-2-(4-methoxystyryl)pyridazine-3(2H)-one] | 532 | 400 | 19.81 | – | – | 2.57 ± 0.54 | – | – |
| COc1cccc(/C=C/n2ncc(Cl)c(Cl)c2=O)c1OC [Compound 19, (E)-4,5-dichloro-2-(2,3-dimethoxystyryl)pyridazine-3(2H)-one] | 504 | 350 | 15.35 | – | – | 8.52 ± 2.48 | – | – |
| COc1ccc(/C=C/n2ncc(Cl)c(Cl)c2=O)c(OC)c1 [Compound 20, (E)-4,5-dichloro-2-(2,4-dimethoxystyryl)pyridazine-3(2H)-one] | 554 | 400 | 11.52 | – | – | 5.03 ± 3.48 | – | – |
| COc1ccc(OC)c(/C=C/n2ncc(Cl)c(Cl)c2=O)c1 [Compound 21, (E)-4,5-dichloro-2-(2,5-dimethoxystyryl)pyridazine-3(2H)-one] | 512 | 370 | 3.42 | – | – | – | – | – |
| COc1cccc(OC)c1/C=C/n1ncc(Cl)c(Cl)c1=O [Compound 22, (E)-4,5-dichloro-2-(2,6-dimethoxystyryl)pyridazine-3(2H)-one] | 545 | 350 | 4.53 | – | – | – | – | – |
| COc1ccc(/C=C/n2ncc(Cl)c(Cl)c2=O)cc1OC [Compound 23, (E)-4,5-dichloro-2-(3,4-dimethoxystyryl)pyridazine-3(2H)-one] | 552 | 350 | 3.52 | – | – | – | – | – |
| COc1cc(/C=C/n2ncc(Cl)c(Cl)c2=O)cc(OC)c1 [Compound 24, (E)-4,5-dichloro-2-(3,5-dimethoxystyryl)pyridazine-3(2H)-one] | 492 | 350 | 5.37 | – | – | – | – | – |
| COc1ccc(/C=C/n2ncc(Cl)c(Cl)c2=O)c(OC)c1OC [Compound 25, (E)-4,5-dichloro-2-(2,3,4-trimethoxystyryl)pyridazine-3(2H)-one] | 536 | 390 | 26.81 | – | – | 4.24 ± 0.98 | – | – |
| COc1cc(OC)c(OC)cc1/C=C/n1ncc(Cl)c(Cl)c1=O [Compound 26, (E)-4,5-dichloro-2-(2,4,5-trimethoxystyryl)pyridazine-3(2H)-one] | 542 | 350 | 3.95 | – | – | – | – | – |
| COc1cc(OC)c(/C=C/n2ncc(Cl)c(Cl)c2=O)c(OC)c1 [Compound 27, (E)-4,5-dichloro-2-(2,4,6-trimethoxystyryl)pyridazine-3(2H)-one] | 560 | 430 | 11.72 | – | – | 17.5 ± 2.49 | – | – |
| COc1cc(/C=C/n2ncc(Cl)c(Cl)c2=O)cc(OC)c1OC [Compound 28] | 580 | 390 | 26.12 | – | – | 4.14 ± 1.94 | – | – |
| Cc1ccc2c(c1)sc(-c1ccc(N(C)C)cc1)[n+]2C.[Cl-] [thio-flavine T, reference compound] | – | – | – | labelled pattern was identical to a pattern observed by using thio-flavine T | did not have fluorescent staining | – | stained | not stained |

Reference: patent US8961937B2 (Korea Atomic Energy Research Institute, priority 2012, dated 2015)
